Each structure is given as a SMILES string.

Common to all, as to type: cell-based
What all share (conditions): Table 3, compounds 101-177

The target of one test is T1, TRPML3 (Homo sapiens, UniProt Q8TDD5).
T1 construct: expressed in transfected cells
T1 sequence (Q8TDD5 1-553): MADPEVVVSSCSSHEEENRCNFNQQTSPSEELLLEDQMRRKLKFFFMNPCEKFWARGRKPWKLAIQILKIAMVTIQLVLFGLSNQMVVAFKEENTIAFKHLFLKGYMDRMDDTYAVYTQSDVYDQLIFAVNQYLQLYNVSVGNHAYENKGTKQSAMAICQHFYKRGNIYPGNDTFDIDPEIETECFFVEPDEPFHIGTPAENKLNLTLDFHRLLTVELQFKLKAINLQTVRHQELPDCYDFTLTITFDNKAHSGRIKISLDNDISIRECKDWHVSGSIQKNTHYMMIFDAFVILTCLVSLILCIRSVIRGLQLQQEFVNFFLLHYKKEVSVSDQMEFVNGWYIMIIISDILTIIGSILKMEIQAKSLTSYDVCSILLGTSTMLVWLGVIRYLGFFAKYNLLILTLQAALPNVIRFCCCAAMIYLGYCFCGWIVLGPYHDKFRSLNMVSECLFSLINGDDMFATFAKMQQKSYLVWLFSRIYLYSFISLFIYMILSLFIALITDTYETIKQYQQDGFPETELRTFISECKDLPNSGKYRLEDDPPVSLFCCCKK
Kind of test: Fluorescent TRPML3 assay (as for TRPML1). Summed up: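 HEK-293 Trex cells with tet-inducible (0.5 ug/mL doxycycline, overnight) surface-targeted mutant channel, Fluo4-AM loaded, suspended in Ringer's with 10 mM calcium. Compounds tested 20 µM to 6 nM final, half-log steps, triplicate; fluorescence at ex 480/em 540 nm. EC50 by non-linear regression of percent activity versus plate controls.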

In a further test the target is human TRPML1 (Homo sapiens, UniProt Q9GZU1). In words: Fluorescent TRPML1 assay (Fluo4-AM calcium fluorescence, HEK-293 Trex cells). Summed up: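 Tet-inducible HEK-293 Trex cells stably expressing surface-targeted mutant human TRPML1, induced with 0.5 ug/mL doxycycline overnight, loaded with Fluo4-AM and suspended in Ringer's with 10 mM calcium. Compounds tested from 20 μM to 6 nM final, half-log steps, in triplicate; fluorescence (ex 480/em 540) normalised to plate controls, EC50 by non-linear regression.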
Sequence of human TRPML1 (Q9GZU1 whole entry L15A/L16A/L577A/L578A, form open): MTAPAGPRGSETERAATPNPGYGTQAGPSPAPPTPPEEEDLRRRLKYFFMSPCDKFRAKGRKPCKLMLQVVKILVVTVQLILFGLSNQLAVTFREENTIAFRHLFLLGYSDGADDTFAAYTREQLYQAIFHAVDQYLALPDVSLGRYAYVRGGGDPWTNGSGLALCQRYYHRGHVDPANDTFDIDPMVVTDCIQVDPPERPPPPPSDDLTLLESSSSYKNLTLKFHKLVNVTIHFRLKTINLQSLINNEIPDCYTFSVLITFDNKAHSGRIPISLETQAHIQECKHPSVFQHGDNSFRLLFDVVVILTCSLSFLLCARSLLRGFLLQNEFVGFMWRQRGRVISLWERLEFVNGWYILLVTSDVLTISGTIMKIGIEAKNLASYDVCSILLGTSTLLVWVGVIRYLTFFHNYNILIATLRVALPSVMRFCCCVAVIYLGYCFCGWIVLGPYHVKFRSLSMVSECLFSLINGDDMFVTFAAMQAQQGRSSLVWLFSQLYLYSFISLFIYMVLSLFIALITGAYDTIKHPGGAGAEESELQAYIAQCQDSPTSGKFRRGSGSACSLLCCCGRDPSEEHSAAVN

For another test, the target named is T2, TRPML2 (Homo sapiens, UniProt Q8IZK6).
T2 construct: expressed in transfected cells
T2 sequence (Q8IZK6 1-566): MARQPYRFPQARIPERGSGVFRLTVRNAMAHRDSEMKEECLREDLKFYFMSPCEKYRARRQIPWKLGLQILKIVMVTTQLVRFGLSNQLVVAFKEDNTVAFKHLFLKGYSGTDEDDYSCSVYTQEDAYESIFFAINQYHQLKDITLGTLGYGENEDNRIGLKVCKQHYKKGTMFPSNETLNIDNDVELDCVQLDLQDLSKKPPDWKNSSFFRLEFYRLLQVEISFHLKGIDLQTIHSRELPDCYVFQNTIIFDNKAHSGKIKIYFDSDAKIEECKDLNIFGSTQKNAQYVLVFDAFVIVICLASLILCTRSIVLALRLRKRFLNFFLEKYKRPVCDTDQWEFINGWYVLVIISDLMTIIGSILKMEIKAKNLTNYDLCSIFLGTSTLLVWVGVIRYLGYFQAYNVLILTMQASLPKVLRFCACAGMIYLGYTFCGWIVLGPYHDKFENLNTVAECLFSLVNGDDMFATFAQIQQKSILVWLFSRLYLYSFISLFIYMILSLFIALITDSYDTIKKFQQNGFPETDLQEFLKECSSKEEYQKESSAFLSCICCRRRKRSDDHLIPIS
In words: Fluorescent TRPML2 assay (as for TRPML1). Here is the method:
HEK-293 Trex cells were stably transfected with a construct consisting of the human coding sequence for TRPML1 cloned into the tet-inducible plasmid pCDNA5 T/O. Mutations were introduced into the TRPML1 sequence to facilitate expression on the cell surface (Silvia Vergarajauregui, Rosa Puertollano Traffic. 2006 March; 7 (3): 337-353). Briefly, the cells are cultured in 150 mm round tissue culture dishes containing 20 mL of media. The day before the assay the cells are rinsed with DPBS —Ca—Mg and then treated briefly with Trypsin-EDTA. The Trypsin-EDTA is diluted with growth media, and cells are counted. 38×10^6 cells are re-plated into 150 mm round tissue culture dishes in media containing 0.5 ug/mL doxycycline to induce expression of hTRPML1.
The day of the experiment cells are lifted from the plates as above and collected by centrifugation. The cells are then suspended in dye loading buffer consisting of Ringer's solution supplemented with 0.1% Pluronic Acid and 1 micromolar Fluo4-AM dye. Cells are loaded for ˜60 minutes in the dark with occasional mixing. The cells are collected by centrifugation, the loading media aspirated, and the cells resuspended in 25 mL Ringer's solution and incubated ˜60 minutes in the dark. The cells are again collected by centrifugation, rinsed in Ringer's Solution and resuspended to 0.2×10^6 cells/mL in modified Ringer's solution containing 10 mM calcium.
Compounds are dissolved to a concentration of 10 millimolar with DMSO. Compound plates are created by dispensing compounds into 384 well black wall clear bottom plates (Greiner 781091). Positive and negative controls are included on each plate. Typically, different amounts of each compound are tested ranging from 100 nanoMoles (20 micromolar final concentration) decreasing in half-log steps to 31 picoMoles (6 nanomolar final concentration). Each concentration is typically tested in triplicate.
50 microliters of dye-loaded cells are dispensed into each well of the compound assay plate created above. The fluorescence in each well is then determined with an excitation wavelength of 480 nm and an emission wavelength of 540 nm using either a Molecular Devices SpectraMax multimode plate reader or a Hamamatsu FDSS/uCell plate imager.
The resulting fluorescence for each well is exported as an ascii file and loaded into our LIMS for analysis. The percent activity of each compound at each concentration is determined by comparison to the positive and negative control wells included in each plate.
Assays for TRPML2 and TRPML3 were performed as above for TRPML1, by substituting the appropriate TRPML2 or TRPML3 subtype for the TRPML1.
EC50 values were calculated using a non-linear regression of Prism. In the table, “A” indicates an EC50 of less than 100 nM, “B” indicates an EC50 range from 100 nM to 500 nM; “C” indicates an EC50 range from 500 nM to 2 μM; and “D” indicates an EC50 greater than 2 μM.

On to `CC(C)(C)C(=O)N1CCN(c2ncnc3c2c(-c2ccccc2F)cn3-c2cc(C#N)ccn2)CC1` [Compound 108, 2-(5-(2-fluorophenyl)-4-(4-pivaloylpiperazin-1-yl)-7H-pyrrolo[2,3-d]pyrimidin-7-yl)isonicotinonitrile], for which the EC50 at TRPML3, at human TRPML1 and at TRPML2 was less than 100 nM in each case.

With `C[C@@H]1CN(c2ncnc3c2c(-c2ccccc2F)cn3-c2cc(C#N)ccn2)CCN1C(=O)C(C)(C)C` [Compound 109, (R)-2-(5-(2-fluorophenyl)-4-(3-methyl-4-pivaloylpiperazin-1-yl)-7H-pyrrolo[2,3-d]pyrimidin-7-yl)isonicotinonitrile], the EC50 on TRPML3, on human TRPML1 and on TRPML2 was less than 100 nM each time.

`C[C@H]1CN(C(=O)C2(F)CC2)CCN1c1ncnc2c1c(-c1ccccc1F)cn2-c1cc(C#N)ccn1` [Compound 115, (S)-2-(4-(4-(1-fluorocyclopropane-1-carbonyl)-2-methylpiperazin-1-yl)-5-(2-fluorophenyl)-7H-pyrrolo[2,3-d]pyrimidin-7-yl)isonicotinonitrile]: the concentration for a half-maximal effect (EC50) on TRPML3, at human TRPML1 and at TRPML2 was less than 100 nM in each case.

For `C[C@H]1CN(C(=O)C(C)(C)C)CCN1c1ncnc2c1c(-c1ccccn1)cn2-c1cc(C#N)ccn1` [Compound 117, (S)-2-(4-(2-methyl-4-pivaloylpiperazin-1-yl)-5-(pyridin-2-yl)-7H-pyrrolo[2,3-d]pyrimidin-7-yl)isonicotinonitrile], the EC50 is 100 to 500 nM on TRPML3, less than 100 nM on human TRPML1 and 500 to 2000 nM at TRPML2.

Turning to `CC(C)C(=O)N1CCN(c2ncnc3c2c(-c2ccccc2)cn3-c2cc(C#N)ccn2)[C@@H](C)C1` [Compound 118, (S)-2-(4-(4-isobutyryl-2-methylpiperazin-1-yl)-5-phenyl-7H-pyrrolo[2,3-d]pyrimidin-7-yl)isonicotinonitrile], the EC50 was less than 100 nM on TRPML3, less than 100 nM on human TRPML1 and 500 to 2000 nM at TRPML2.

With `C[C@H]1CN(C(=O)C(C)(C)C)CCN1c1ncnc2c1c(-c1ccccc1)cn2-c1cc(C#N)ccn1` [Compound 120, (S)-2-(4-(2-methyl-4-pivaloylpiperazin-1-yl)-5-phenyl-7H-pyrrolo[2,3-d]pyrimidin-7-yl)isonicotinonitrile], the EC50 was less than 100 nM at TRPML3, less than 100 nM on human TRPML1 and 100 to 500 nM on TRPML2.

As to `C[C@@H]1CN(c2ncnc3c2c(-c2ccccc2)cn3-c2cc(C#N)ccn2)CCN1C(=O)C(C)(C)C` [Compound 121, (R)-2-(4-(3-methyl-4-pivaloylpiperazin-1-yl)-5-phenyl-7H-pyrrolo[2,3-d]pyrimidin-7-yl)isonicotinonitrile], the values for the 50% effective concentration (EC50) on TRPML3, on human TRPML1 and at TRPML2 were less than 100 nM, less than 100 nM and 100 to 500 nM, respectively.

In the case of `C[C@@H]1CN(c2ncnc3c2c(C2CC2)cn3-c2cc(C#N)ccn2)CCN1C(=O)C(C)(C)C` [Compound 122, (R)-2-(5-cyclopropyl-4-(3-methyl-4-pivaloylpiperazin-1-yl)-7H-pyrrolo[2,3-d]pyrimidin-7-yl)isonicotinonitrile], the EC50 was 100 to 500 nM at TRPML3, less than 100 nM on human TRPML1 and 100 to 500 nM on TRPML2.

For `C[C@@H]1CN(c2ncnc3c2c(-c2ccccc2F)cn3-c2cc(C#N)ccn2)CCN1C(=O)C(C)(C)F` [Compound 126, (R)-2-(4-(4-(2-fluoro-2-methylpropanoyl)-3-methylpiperazin-1-yl)-5-(2-fluorophenyl)-7H-pyrrolo[2,3-d]pyrimidin-7-yl)isonicotinonitrile], the values for the EC50 on TRPML3, on human TRPML1 and on TRPML2 were less than 100 nM, less than 100 nM and 100 to 500 nM, respectively.

For the compound `C[C@H]1CN(C(=O)C2(C)CC2)CCN1c1ncnc2c1c(-c1ccccc1)cn2-c1cc(C#N)ccn1` [Compound 128, (S)-2-(4-(2-methyl-4-(1-methylcyclopropane-1-carbonyl)piperazin-1-yl)-5-phenyl-7H-pyrrolo[2,3-d]pyrimidin-7-yl)isonicotinonitrile], the EC50 on TRPML3, on human TRPML1 and at TRPML2 was less than 100 nM each time.

Regarding `C[C@@H]1CN(c2ncnc3c2c(C2CC2)cn3-c2cc(C#N)ccn2)CCN1C(=O)C(C)(C)F` [Compound 130, (R)-2-(5-cyclopropyl-4-(4-(2-fluoro-2-methylpropanoyl)-3-methylpiperazin-1-yl)-7H-pyrrolo[2,3-d]pyrimidin-7-yl)isonicotinonitrile], the EC50 at TRPML3 is less than 100 nM; at human TRPML1, less than 100 nM; on TRPML2, 100 to 500 nM.

Consider `C[C@@H]1CN(c2ncnc3c2c(-c2ccccc2F)cn3-c2cc(C#N)ccn2)CCN1C(=O)C1(F)CC1` [Compound 131], for which the values for the EC50 at TRPML3, on human TRPML1 and on TRPML2 were less than 100 nM, less than 100 nM and 100 to 500 nM, respectively.

For the compound `C[C@H]1CN(C(=O)CC(C)(C)C)CCN1c1ncnc2c1c(-c1ccccc1F)cn2-c1cc(C#N)ccn1` [Compound 133, (S)-2-(4-(4-(3,3-dimethylbutanoyl)-2-methylpiperazin-1-yl)-5-(2-fluorophenyl)-7H-pyrrolo[2,3-d]pyrimidin-7-yl)isonicotinonitrile], the values for the EC50 at TRPML3, at human TRPML1 and at TRPML2 were less than 100 nM, less than 100 nM and 100 to 500 nM, respectively.

Take `CC(C)C(=O)N1C[C@H](C)N(c2ncnc3c2c(-c2ccccc2F)cn3-c2cc(C#N)ccn2)C[C@H]1C` [Compound 139, 2-(5-(2-fluorophenyl)-4-((2S,5R)-4-isobutyryl-2,5-dimethylpiperazin-1-yl)-7H-pyrrolo[2,3-d]pyrimidin-7-yl)isonicotinonitrile]: the half-maximal effective concentration (EC50) on TRPML3, at human TRPML1 and at TRPML2 was less than 100 nM in each case.

As usually defined, the EC50 is the concentration giving half of the maximal effect.

(Values after patent publication US20240398812A1 (Caraway Therapeutics, Inc., priority 2021, published 2024).)
